Data on five molecules can be found in publication PMC12232896 (Angewandte Chemie (International Ed. in English), 2025).

SMILES strings stand for the structures.

As a reminder, the IC50 is the concentration needed to halve the response being measured.

In assay [1] the target is PvPI4Kβ (Plasmodium vivax, UniProt A5KB26). On the set-up: method as in PMID 33590753, PMID 28446690, PMID 30249687. The conditions noted are these: same assay; cited from earlier work.
The target in assay [2] is T1, HsMINK1 (Homo sapiens, UniProt Q8N4C8).
T1 construct: purchased Reaction Biology
As to the kind of experiment: HsMINK1 ADP-Glo kinase assay. In kind it is biochemical. The conditions noted are these: reference compound, 10 µM ATP. (ADP-Glo first removes unused ATP, then detects ADP through luciferase.)

For assay [3], the target named is T2, HsMAP4K4 (Homo sapiens, UniProt O95819).
T2 construct: purchased Reaction Biology
As to the kind of experiment: HsMAP4K4 ADP-Glo kinase assay. Type of assay: biochemical. Particulars: reference compound, 10 µM ATP.

In assay [4] the test system is Pf3D7 strain. The conditions noted are these: cited from earlier work.
Assay [5] has as its system P. berghei. On the set-up: method as in earlier work. The conditions noted are these: 4 × 30 mg/kg; cited from earlier work.

Sequence of PvPI4Kβ (A5KB26 entry or part of it): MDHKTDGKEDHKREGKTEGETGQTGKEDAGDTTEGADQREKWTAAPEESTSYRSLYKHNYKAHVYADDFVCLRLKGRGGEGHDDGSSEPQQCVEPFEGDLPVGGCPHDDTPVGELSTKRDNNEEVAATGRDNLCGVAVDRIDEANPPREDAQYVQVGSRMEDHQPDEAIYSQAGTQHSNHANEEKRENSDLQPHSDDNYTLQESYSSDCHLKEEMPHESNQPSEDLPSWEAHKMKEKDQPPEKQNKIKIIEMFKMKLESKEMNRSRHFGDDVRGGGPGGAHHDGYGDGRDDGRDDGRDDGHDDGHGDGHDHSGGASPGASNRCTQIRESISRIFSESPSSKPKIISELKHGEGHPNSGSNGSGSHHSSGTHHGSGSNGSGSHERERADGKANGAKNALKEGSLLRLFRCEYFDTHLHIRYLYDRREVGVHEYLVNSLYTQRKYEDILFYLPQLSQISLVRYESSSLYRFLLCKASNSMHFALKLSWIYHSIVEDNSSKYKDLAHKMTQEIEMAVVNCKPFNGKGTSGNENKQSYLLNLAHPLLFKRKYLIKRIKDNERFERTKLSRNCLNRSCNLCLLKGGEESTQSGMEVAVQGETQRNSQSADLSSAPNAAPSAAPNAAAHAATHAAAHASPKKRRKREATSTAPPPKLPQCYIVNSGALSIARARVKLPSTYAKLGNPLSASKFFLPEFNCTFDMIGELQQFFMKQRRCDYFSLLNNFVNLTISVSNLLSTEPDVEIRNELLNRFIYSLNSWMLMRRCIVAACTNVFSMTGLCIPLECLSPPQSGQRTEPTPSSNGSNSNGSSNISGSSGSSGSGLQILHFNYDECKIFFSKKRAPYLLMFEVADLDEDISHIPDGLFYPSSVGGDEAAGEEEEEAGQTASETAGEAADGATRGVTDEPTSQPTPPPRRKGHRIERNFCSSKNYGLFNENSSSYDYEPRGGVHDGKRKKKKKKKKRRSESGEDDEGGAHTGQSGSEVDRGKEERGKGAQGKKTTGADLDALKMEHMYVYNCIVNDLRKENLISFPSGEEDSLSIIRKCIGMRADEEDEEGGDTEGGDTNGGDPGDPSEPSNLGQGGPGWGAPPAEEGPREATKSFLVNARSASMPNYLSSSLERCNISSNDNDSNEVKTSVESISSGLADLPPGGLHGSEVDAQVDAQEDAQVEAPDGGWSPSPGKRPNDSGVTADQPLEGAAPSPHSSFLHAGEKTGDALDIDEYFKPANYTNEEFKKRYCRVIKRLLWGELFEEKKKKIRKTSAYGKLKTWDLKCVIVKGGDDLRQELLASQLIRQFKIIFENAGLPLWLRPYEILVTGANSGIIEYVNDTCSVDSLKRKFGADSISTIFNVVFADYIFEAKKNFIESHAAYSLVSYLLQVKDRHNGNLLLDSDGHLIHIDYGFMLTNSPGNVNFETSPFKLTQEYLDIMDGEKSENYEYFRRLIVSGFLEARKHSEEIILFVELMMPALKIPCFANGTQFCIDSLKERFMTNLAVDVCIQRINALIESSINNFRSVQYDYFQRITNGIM
T2 sequence (O95819 whole entry): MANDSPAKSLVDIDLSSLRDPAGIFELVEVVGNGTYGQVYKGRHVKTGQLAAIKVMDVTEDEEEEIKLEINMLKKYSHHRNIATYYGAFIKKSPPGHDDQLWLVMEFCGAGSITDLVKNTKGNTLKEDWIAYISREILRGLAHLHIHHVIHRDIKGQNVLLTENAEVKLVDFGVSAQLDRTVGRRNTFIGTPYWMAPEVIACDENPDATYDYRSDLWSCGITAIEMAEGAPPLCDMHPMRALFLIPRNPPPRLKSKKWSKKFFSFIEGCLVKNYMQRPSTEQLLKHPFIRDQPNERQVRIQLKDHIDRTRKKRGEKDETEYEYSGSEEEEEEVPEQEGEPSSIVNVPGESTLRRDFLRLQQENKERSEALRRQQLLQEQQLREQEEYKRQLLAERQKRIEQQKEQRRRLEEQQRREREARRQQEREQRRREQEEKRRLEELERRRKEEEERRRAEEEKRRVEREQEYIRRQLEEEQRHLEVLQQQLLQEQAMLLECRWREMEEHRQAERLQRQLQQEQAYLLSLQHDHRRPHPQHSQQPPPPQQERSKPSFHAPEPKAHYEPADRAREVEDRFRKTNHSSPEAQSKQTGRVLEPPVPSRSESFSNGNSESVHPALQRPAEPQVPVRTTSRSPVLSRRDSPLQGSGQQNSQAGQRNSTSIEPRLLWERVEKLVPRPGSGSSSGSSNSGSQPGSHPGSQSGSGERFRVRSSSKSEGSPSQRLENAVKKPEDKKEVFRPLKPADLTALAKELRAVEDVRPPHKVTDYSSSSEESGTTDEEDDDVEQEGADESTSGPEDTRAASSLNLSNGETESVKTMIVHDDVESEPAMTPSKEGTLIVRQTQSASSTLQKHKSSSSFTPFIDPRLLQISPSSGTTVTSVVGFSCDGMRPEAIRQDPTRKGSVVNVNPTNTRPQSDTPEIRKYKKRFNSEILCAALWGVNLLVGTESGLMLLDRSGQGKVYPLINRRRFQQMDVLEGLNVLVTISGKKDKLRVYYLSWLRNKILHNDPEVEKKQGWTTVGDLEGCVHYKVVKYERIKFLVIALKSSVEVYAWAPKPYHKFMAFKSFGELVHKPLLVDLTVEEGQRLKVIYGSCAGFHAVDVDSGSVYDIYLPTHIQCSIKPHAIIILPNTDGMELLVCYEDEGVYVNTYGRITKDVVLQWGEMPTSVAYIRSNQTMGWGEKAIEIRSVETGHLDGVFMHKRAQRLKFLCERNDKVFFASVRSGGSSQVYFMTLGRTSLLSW
T1 sequence (Q8N4C8 whole entry): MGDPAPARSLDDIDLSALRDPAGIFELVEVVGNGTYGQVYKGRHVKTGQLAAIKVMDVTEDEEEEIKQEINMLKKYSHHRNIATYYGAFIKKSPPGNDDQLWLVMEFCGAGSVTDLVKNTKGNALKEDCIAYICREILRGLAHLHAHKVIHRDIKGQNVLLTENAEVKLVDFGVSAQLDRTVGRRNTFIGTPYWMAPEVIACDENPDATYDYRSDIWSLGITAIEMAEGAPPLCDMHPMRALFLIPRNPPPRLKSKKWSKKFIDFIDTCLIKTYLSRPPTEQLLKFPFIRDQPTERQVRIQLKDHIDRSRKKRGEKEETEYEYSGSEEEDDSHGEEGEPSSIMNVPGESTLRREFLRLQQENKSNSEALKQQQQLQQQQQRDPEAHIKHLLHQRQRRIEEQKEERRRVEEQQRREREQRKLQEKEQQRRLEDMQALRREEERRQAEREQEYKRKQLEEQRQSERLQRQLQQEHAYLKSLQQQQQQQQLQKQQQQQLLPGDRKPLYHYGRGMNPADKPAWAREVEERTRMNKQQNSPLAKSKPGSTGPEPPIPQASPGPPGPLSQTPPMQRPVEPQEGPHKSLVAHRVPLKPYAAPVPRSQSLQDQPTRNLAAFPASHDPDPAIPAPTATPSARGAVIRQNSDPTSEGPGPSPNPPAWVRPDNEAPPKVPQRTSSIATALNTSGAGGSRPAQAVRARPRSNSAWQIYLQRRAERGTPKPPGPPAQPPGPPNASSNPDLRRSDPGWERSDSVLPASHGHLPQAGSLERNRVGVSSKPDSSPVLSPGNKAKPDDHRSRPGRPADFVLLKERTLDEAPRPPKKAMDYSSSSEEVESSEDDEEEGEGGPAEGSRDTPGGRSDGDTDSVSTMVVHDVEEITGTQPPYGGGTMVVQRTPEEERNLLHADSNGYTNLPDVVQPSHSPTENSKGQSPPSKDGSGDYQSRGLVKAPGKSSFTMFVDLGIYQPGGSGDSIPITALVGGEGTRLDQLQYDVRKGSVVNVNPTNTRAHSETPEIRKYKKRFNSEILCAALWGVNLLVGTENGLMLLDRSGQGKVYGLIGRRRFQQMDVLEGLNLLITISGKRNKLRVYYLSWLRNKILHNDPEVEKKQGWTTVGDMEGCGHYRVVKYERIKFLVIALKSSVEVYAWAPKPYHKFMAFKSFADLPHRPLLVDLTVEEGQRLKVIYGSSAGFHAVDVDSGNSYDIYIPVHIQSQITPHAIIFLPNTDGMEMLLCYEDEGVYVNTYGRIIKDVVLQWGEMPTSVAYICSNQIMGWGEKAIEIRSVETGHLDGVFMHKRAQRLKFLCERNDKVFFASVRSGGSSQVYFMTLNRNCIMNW

On to `CC(C)n1nc(-c2ccc3oc(N)nc3c2)c2c(N)ncnc21` [sapanisertib], for which, in assay [1], the IC50 is < 5 nM.
In the case of `CN[C@@H]1C[C@H]2O[C@@](C)([C@@H]1OC)n1c3ccccc3c3c4c(c5c6ccccc6n2c5c31)C(=O)NC4` [staurosporine], in assay [2], the “inhibition HsMINK1” value is listed as “nanomolar inhibition”. Also, the “inhibition HsMAP4K4” value in assay [3] is recorded as “nanomolar inhibition”.
Consider `Nc1ncc(-c2ccc(C(=O)N3CCNCC3)cc2)nc1-c1ccc(C(F)(F)F)cc1` [UCT943], for which the 50% inhibitory concentration (IC50) in assay [1] was < 5 nM. Also, in assay [4], the logPRR was 2.5.
`CCN(CC)CCCC(C)Nc1ccnc2cc(Cl)ccc12` (stereo not shown) [chloroquine]: the reduction in parasitaemia in assay [5] is recorded as 99.9%.
As for `C[C@H]1[C@H](OC(=O)CCC(=O)O)O[C@@H]2O[C@@]3(C)CC[C@H]4[C@H](C)CC[C@@H]1[C@@]24OO3` [artesunate], the reduction in parasitaemia in assay [5] is recorded as 99%.
